From patent publication US20230279004A1, “SOLID FORMS, SALTS, AND PROCESSES OF PREPARATION OF A CDK2 INHIBITOR” (Incyte Corporation, priority 2022, published 2023)
Marks after values point to notes of the source that are not given here.

Key:
CDK2/Cyclin E1 = biological target: T1, CDK2/Cyclin E1 (Homo sapiens, UniProt P24941); experiment: CDK2/Cyclin E1 HTRF enzyme activity assay; type: biochemical; details: 1 mM ATP
T1 construct: full-length human CDK2; GST (N); purchased Carna 04-165; host or cells: baculovirus expression system
Experimental: CDK2/Cyclin E1 enzyme activity assays utilize full-length human CDK2 co-expressed as N-terminal GST-tagged protein with FLAG-Cyclin E1 in a baculovirus expression system (Carna Product Number 04-165). Assays were conducted in white 384-well polystyrene plates in a final reaction volume of 8 μL. CDK2/Cyclin E1 (0.25 nM) was incubated with the compounds of the Examples (40 nL serially diluted in DMSO) in the presence of ATP (50 μM or 1 mM) and 50 nM ULight™-labeled eIF4E-binding protein 1 (THR37/46) peptide (PerkinElmer) in assay buffer (containing 50 mM HEPES pH 7.5, 1 mM EGTA, 10 mM MgCl2, 2 mM DTT, 0.05 mg/mL BSA, and 0.01% Tween 20) for 60 minutes at room temperature. The reactions were stopped by the addition of EDTA and Europium-labeled anti-phospho-4E-BP1 antibody (PerkinElmer), for a final concentration of 15 mM and 1.5 nM, respectively. HTRF signals were read after 1 hour at room temperature on a PHERAstar FS plate reader (BMG Labtech). Data was analyzed with IDBS XLFit and GraphPad Prism 5.0 software using a three or four parameter dose response curve to determine IC50 for each compound.

[1] = Solid form change on heating (DSC); type: physicochemical
Experimental: The DSC was obtained from TA Instruments Differential Scanning Calorimetry, Discovery DSC2500 with autosampler. The DSC instrument conditions were as follows: 20-300° C. at 10° C./min; Tzero aluminum sample pan and lid; and nitrogen gas flow at 50 mL/min.
When comparing the DSC of Form I and Form II, it was observed that Form II solids contained two peaks (FIG. 23), with the latter peak onset (≈191.0° C.) and Tmax (193.4° C.) similar to the peak onset and Tmax of Form I (FIG. 2).
The residual solvent could not be removed by conventional drying methods. […] The stoichiometric ratio of the compound of Formula (I) and 1,4-dioxane could be 4:1. The DSC of the solid (FIG. 26) contained a peak onset latter peak onset (≈192.6° C.) and Tmax (194.3° C.), which are similar to the peak onset (191.3° C.) and Tmax (193.3° C.) of Form I (FIG. 2).

[2] = Phase equilibration (XRPD of equilibrated solid); type: physicochemical; details: Form I stirred at 25° C. for 48 hours or 50° C. for 24 hours, all solvents tested (Table 9)
Experimental: Phase equilibration studies were conducted to identify a predominant crystal form for phase identification. Based on its solubility in various solvent systems (Table 8), the compound of Formula (I) Form I was equilibrated in a representative groups of solvents at 25±1° C. and 50±1° C. To the solvents, the compound of Formula (I) Form I was added until a cloudy solution was obtained, then approximately 20 mg of the compound of Formula (I) Form I was added to the cloudy solution. The mixture was stirred at 25±1° C. or 50±1° C. for 48 hours or 24 hours, respectively. The solid was filtered, dried in vacuum, and analyzed by XRPD.

[3] = Solubility measurement in various solvents (HPLC); type: physicochemical; details: for Solubility (25° C.) / solubility at 48 h: 48 h; for Solubility (50° C.) / solubility at 24 h: 24 h; for solubility at 48 h: 25 °C; for solubility at 48 h / solubility at 24 h: organic solvent or mixture; for solubility at 24 h: 50 °C
Experimental: 5 mL of solvent (see Table 8) was added to the individual vials. The compound of Formula (I) Form I was added to the vials to get a cloudy solution at 25° C. Another approximately 20 mg of the compound of Formula (I) Form I was added to the cloudy solution. The mixture was agitated at 25±1° C. for 48 h, which was controlled by IKA® ETS-D5 temperature controller and IKA® RCT basic safety control. The supernatant was filtered using a syringe filter (0.22 μm). The saturated solution was pipetted into HPLC vials and diluted with MeOH or acetone.
The solubility measurement at 50° C. was performed according to the following procedure. 5 mL of solvent (see Table 8) was added to the individual vials. The compound of Formula (I) Form I was added to the vials to get a cloudy solution at 50° C. Another approximately 20-25 mg of the compound of Formula (I) Form I was added. The mixture was agitated at 50±1° C. for 24 h, which was controlled by IKA® ETS-D5 temperature controller and IKA® RCT basic safety control. The supernatant was filtered quickly using a warmed syringe filter (0.22 μm) at 50±1° C. The saturated solution was pipetted into HPLC vials and diluted with MeOH or acetone.

[4] = 1,4-dioxane, thermodynamic from solid, 1,4-Dioxane
[5] = 2-methoxyethanol, thermodynamic from solid
[6] = chloroform, thermodynamic from solid
[7] = dimethylformamide, thermodynamic from solid
[8] = iso-butyl acetate, thermodynamic from solid
[9] = methyl ethyl ketone, thermodynamic from solid
[10] = tetrahydrofuran (THF), thermodynamic from solid

In the case of CCOc1c(-c2cn[nH]c2)ccn2nc(N[C@H]3CCN(S(C)(=O)=O)C[C@H]3C)nc12 [Compound of Formula (I), 8-ethoxy-N-((3R,4S)-3-methyl-1-(methylsulfonyl)piperidin-4-yl)-7-(1H-pyrazol-4-yl)-[1,2,4]triazolo[1,5-a]pyridin-2-amine], the IC50 (CDK2/Cyclin E1) is reported as ≤ 20 nM.
In the case of CCOc1c(-c2cn[nH]c2)ccn2nc(N[C@H]3CCN(S(C)(=O)=O)C[C@H]3C)nc12 [Form II, 8-ethoxy-N-((3R,4S)-3-methyl-1-(methylsulfonyl)piperidin-4-yl)-7-(1H-pyrazol-4-yl)-[1,2,4]triazolo[1,5-a]pyridin-2-amine], the “Solid form change during the heating process” value [1] is reported as “changed to Form I”.
For CCOc1c(-c2cn[nH]c2)ccn2nc(N[C@H]3CCN(S(C)(=O)=O)C[C@H]3C)nc12 [compound of Formula (I) Form I, 8-ethoxy-N-((3R,4S)-3-methyl-1-(methylsulfonyl)piperidin-4-yl)-7-(1H-pyrazol-4-yl)-[1,2,4]triazolo[1,5-a]pyridin-2-amine], the “Crystalline form for phase equilibration” value [2] was “crystalline Form I”, the “Solubility (25° C.)” value ([3]; 1,4-Dioxane) was >50* mg/mL and the “Solubility (50° C.)” value ([3]; 1,4-Dioxane, 50° C.) was >50* mg/mL. The solubility at 48 h [3, 4] was > 50 mg/mL, the solubility at 24 h [3, 4] was > 50 mg/mL and the “Solubility (50° C.)” value ([3]; 2-Me THF/H2O/Heptane (1:1.5%:1), 50° C.) was 0.6 mg/mL. The solubility at 24 h ([3]; 2-Me THF/H2O/heptane (1:1.5%:1), thermodynamic from solid, 2-Me THF/H2O/Heptane (1:1.5%:1), 50° C.) was < 1 mg/mL, the “Solubility (25° C.)” value ([3]; 2-Methoxyethanol) was >50* mg/mL and the “Solubility (50° C.)” value ([3]; 2-Methoxyethanol, 50° C.) was >50* mg/mL. For the same compound, the “Solubility (50° C.)” value ([3]; 2-Methyl THF, 50° C.) was 18.7 mg/mL, the solubility at 48 h [3, 5] was > 50 mg/mL and the solubility at 24 h [3, 5] was > 50 mg/mL. The solubility at 24 h ([3]; 2-methyl THF, thermodynamic from solid) was 15 to 50 mg/mL, the “Solubility (50° C.)” value ([3]; 3% water in EtOH, 50° C.) was 20.0 mg/mL and the solubility at 24 h ([3]; 3% water in EtOH, thermodynamic from solid) was 15 to 50 mg/mL. The “Solubility (25° C.)” value ([3]; Chloroform) was >50* mg/mL, the “Solubility (50° C.)” value ([3]; Chloroform, 50° C.) was >50* mg/mL and the “Solubility (25° C.)” value ([3]; DMSO) was >50* mg/mL. The solubility at 48 h ([3]; DMSO, thermodynamic from solid) was > 50 mg/mL, the “Solubility (50° C.)” value ([3]; DMSO, 50° C.) was >50* mg/mL and the solubility at 24 h ([3]; DMSO, thermodynamic from solid) was > 50 mg/mL. The “Solubility (25° C.)” value ([3]; Dichloromethane) was 18.5 mg/mL, the “Solubility (25° C.)” value ([3]; Dimethylformamide) was >50* mg/mL and the “Solubility (50° C.)” value ([3]; Dimethylformamide, 50° C.) was >50* mg/mL. The “Solubility (50° C.)” value ([3]; EtOH, 50° C.) was 15.7 mg/mL, the solubility at 24 h ([3]; EtOH, thermodynamic from solid) was 15 to 50 mg/mL and the “Solubility (50° C.)” value ([3]; Ethyl formate, 50° C.) was 15.2 mg/mL. The “Solubility (25° C.)” value ([3]; MeOH) was 18.7 mg/mL, the solubility at 48 h ([3]; MeOH, thermodynamic from solid) was 15 to 50 mg/mL and the “Solubility (25° C.)” value ([3]; Methyl ethyl ketone) was 15.9 mg/mL. The “Solubility (50° C.)” value ([3]; Methyl ethyl ketone, 50° C.) was 25.3 mg/mL, the “Solubility (25° C.)” value ([3]; Tetrahydrofuran (THF)) was >50* mg/mL and the “Solubility (50° C.)” value ([3]; Tetrahydrofuran (THF), 50° C.) was >50* mg/mL. For the same compound, the “Solubility (50° C.)” value ([3]; Toluene, 50° C.) was 0.5 mg/mL, the solubility at 48 h [3, 6] was > 50 mg/mL and the solubility at 24 h [3, 6] was > 50 mg/mL. The solubility at 48 h ([3]; dichloromethane, thermodynamic from solid) was 15 to 50 mg/mL, the solubility at 48 h [3, 7] was > 50 mg/mL and the solubility at 24 h [3, 7] was > 50 mg/mL. The solubility at 24 h ([3]; ethyl formate, thermodynamic from solid) was 15 to 50 mg/mL, the “Solubility (25° C.)” value ([3]; iso-Butyl acetate) was 1.1 mg/mL and the “Solubility (50° C.)” value ([3]; iso-Butyl acetate, 50° C.) was 1.6 mg/mL. For the same compound, the “Solubility (25° C.)” value ([3]; iso-Propyl acetate) was 1.8 mg/mL, the solubility at 48 h [3, 8] was 1 to 15 mg/mL and the solubility at 24 h [3, 8] was 1 to 15 mg/mL. For the same compound, the solubility at 48 h ([3]; iso-propyl acetate, thermodynamic from solid) was 1 to 15 mg/mL, the solubility at 48 h [3, 9] was 15 to 50 mg/mL and the solubility at 24 h [3, 9] was 15 to 50 mg/mL. For the same compound, the solubility at 48 h [3, 10] was > 50 mg/mL, the solubility at 24 h [3, 10] was > 50 mg/mL and the solubility at 24 h ([3]; toluene, thermodynamic from solid) was < 1 mg/mL.
